Entries after “also recorded” stand apart in the source; their conditions may differ. Like-named read-outs stand apart in the source and are kept apart here.
Assays:
U251MG = experiment: GBM cell line viability IC50, U251; type: cell-based; details: Homo sapiens, U-251
Procedure: In vitro experiments were devised in which a series of GBM cell lines representative for MGMT negative and MGMT positive tumour cells were used.
Compounds: 1-100 µM EDO-S101, 1-50 µM temozolomide (TMZ), 1-50 µM temozolomide + 500 nM vorinostat, 1-40 µM bendamustine, 1-40 µM bendamustine and 500 nM vorinostat.
Twelve glioblastoma cell lines representing grade III and IV gliomas and with different expression of MGMT, drug and radiotherapy sensitivity and five patient derived glioblastoma stem, cells were used (see above). […] Spheres were counted 5 days after treatment under an inverted microscope at ×4 magnification. A sphere was counted if it had at least 15 cells.
Cells were seeded at a density of 2 × 10^4 cells/ml in 24 well plates. […] Cells trypsinized and resuspended in 1.0 ml of saline were counted using the NucleoCounterTM NC-100 (automated cell counter systems, Chemotec, Cydevang, DK) in order to evaluate cell viability. […] IC50 values were calculated by the GraFit method (Erithacus Software Limited, Staines, UK). Cell viability was measured with the 3-(4,5 dimethylthiazol-2-yl)-2,5-diphenyl tetrazolium bromide (MTT; Sigma-Aldrich) assay.
IC50 and IC20 values for all twelve cell lines against bendamustine and vorinostat were also determined as described above. […]

U87 = experiment: s.c. xenograft model of GBM, U87, time to progression; type: in vivo, mice; details: for time to progression of the tumours: U87G xenograft
Procedure: Next, adopting the procedure of Example 3, s.c. xenograft models of GBMs in mice were prepared using the GBM cell lines U251 and U87.
(§1) The U251 mice prepared as above were subjected either subjected to radiotherapy (2 Gy for 5 consecutive days), treatment with EDO-S101 (60 mg/kg intravenously at days 1, 8 and 15 of the treatment cycle) or control only. Before any irradiation mice were anesthetized with a mixture of ketamine (25 mg/ml)/xylazine (5 mg/ml). Anesthetized tumor-bearing mice received a focal irradiation at the dose of 2 Gy for 5 consecutive days. Irradiation was delivered using an X-ray linear accelerator at a dose rate of 200 cGy/min at room temperature. All mice were shielded with a specially designed lead apparatus to allow irradiation to the right hind limb. Mice were kept under these conditions until all irradiation finished.
The same sequence of experiments was followed, but this time with the s.c. xenograft models of GBM in mice prepared using the GBM cell line U87. In a first experiment, the U87 mice prepared as above were subjected either subjected to radiotherapy (2 Gy for 5 consecutive days), treatment with EDO-S101 (60 mg/kg intravenously at days 1, 8 and 15 of the treatment cycle) or control only. A study was made of the progression of the GBM.

U251-luciferase = experiment: Orthotopic model of U251-luciferase transfected cells; type: in vivo, mice; details: for mice with tumours of some grade (percent): control 72.7%
Procedure: Mice isotopically transfected with U251-luciferase in accordance with the procedure of Example 3 were treated with radiotherapy (2 Gy for 5 consecutive days), temozolomide (16 mg/kg for 5 consecutive days, po), radiotherapy and temozolomide (2 Gy for 5 consecutive days and 16 mg/kg for 5 consecutive days, po), EDO-S101 (60 mg/kg, intravenously at days 1, 8 and 15 of the treatment cycle) or control vehicle.
Intracranial tumour growth was monitored with the […] imaging system (Caliper Life Sciences, Hopkinton, MA, USA). Mice were anesthetized with 2% to 4% isofluorane (Baxter, Deerfield, IL, USA) followed by intraperitoneal injections of 150 mg/kg d-luciferin (In Vivo Imaging Solutions). Five animals were measured at the same time and the luminescent camera was set to 1 minute exposure, medium binning, 1 f/stop, blocked excitation filter, and open emission filter. The photographic camera was set to 2 s exposure, medium binning, and 8 f/stop. The field of view was set to 22 cm to capture five mice at once. Serial images were taken on a weekly basis using identical settings. Bioluminescence intensity was quantified using the Living Image software (Caliper Life Sciences).
as §1, with “Before” for “The U251 mice prepared as above were subjected either subjected to radiotherapy (2 Gy for 5 consecutive days), treatment with EDO-S101 (60 mg/kg intravenously at days 1, 8 and 15 of the treatment cycle) or control only. Before”, “tumour-bearing” for “tumor-bearing”
All images were obtained in the transverse plane using the following sequences: transverse T2-weighted turbo spin-echo (TSE) sequence (repetition time [TR] msec/echo time [TE] msec) 6766/120, number of signal acquired 4, matrix of 192 × 192) applied with a section thickness of […], an intersection gap of 0.0 mm, and a flip angle of 160 °. The field of view was 36 × 60 mm^2, which included the tumour in its entirety with a resultant voxel size of 0.3 × 0.3 × 1.0 mm^3.
Continuous variables were summarized as mean and standard deviation (SD) or as median and 95% Cl for the median. For continuous variables not normally distributed, statistical comparisons between control and treated groups were established by carrying out the Kruskal-Wallis Tests. For continuous variables normally distributed, statistical comparisons between control and treated groups were established by carrying out the ANOVA test or by Student t test for unpaired data (for two comparisons).

NCI-60 cell lines = details: read-out: median IC50 value; cited from earlier work
[1] = drug in combination with radiotherapy 2 Gy x 5 days, EDO-S101 60 mg/kg iv days 1, 8, 15, temozolomide 16 mg/kg po x 5 days
[2] = drug alone, 50 days after beginning of treatment

Row | Structure (SMILES) | IC50 (U251MG; MGMT negative U251MG glioblastoma cell line, read-out: IC50) [µM] | time to progression of the tumours (U87; [1]) | mice with tumours of some grade (percent) (U251-luciferase; [2]) [%] | mice displaying lesions at the end of the study (percent) (U251-luciferase; with radiotherapy 2 Gy x 5 days, temozolomide 16 mg/kg po x 5 days) [%] | IC50 (U251MG) [µM] | IC50 (NCI-60 cell lines) [µM] | time to progression of the tumours (U87; drug alone, 60 mg/kg iv days 1, 8, 15, control approximately 15 days) [days] | time to progression versus radiotherapy, or versus radiotherapy and temozolomide (U87; U87 s.c. xenograft, drug alone, FIG. 13, FIG. 14) | time to progression versus EDO-S101 alone and versus radiotherapy and temozolomide (U87; U87 s.c. xenograft, drug plus radiotherapy, FIG. 14) | survival probability versus radiotherapy or temozolomide (U251-luciferase; drug alone, 60 mg/kg iv days 1, 8, 15, FIG. 17) | mice displaying a large lesion (number) (U251-luciferase; [2]) | mice with tumours of some grade (number) (U251-luciferase; drug alone, 50 days after beginning of treatment, control 8 out of 11)
1 | Cn1nnc2c(C(N)=O)ncn2c1=O [temozolomide] | 20 | 35 days | 38.5 | 18.2 |  |  |  |  |  |  |  | 
2 | Cn1c(CCCC(=O)O)nc2cc(N(CCCl)CCCl)ccc21 [bendamustine] |  |  |  |  | 30 | 72 |  |  |  |  |  | 
3 | Cn1c(CCCCCCC(=O)NO)nc2cc(N(CCCl)CCCl)ccc21 [EDO-S101] |  | over 50 days | 38.5 |  |  | 2.2 | 40 | considerably longer; also recorded: greater than that achieved with the combined radiotherapy and temozolomide treatment | significantly longer | significantly greater | 1 of the 13 | 5 out of 13

— patent publication US20230049350A1, “COMPOUNDS FOR TREATING BRAIN CANCER” (Purdue Pharmaceutical Products L.P., priority 2014, published 2023)
